In PubChem BioAssay AID1963981 (Molecular Pharmacology Branch, DTP, NCI, 2024):

Test system: 354836-022-R-J1-PDC multicell spheroid viability
Assay: Anticancer human tumor 354836-022-R-J1-PDC patient-derived head and neck squamous cell carcinoma cell line growth inhibition [PI3K]
Details: for IC50: curve of first compound; for viability, T/C: stronger effect = lower value
Outline: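 Stroma-containing spheroids: tumor line, pooled-donor HUVEC, hMSC. Treatments: targeted agents with PI3K inhibitors. Dosing: clinically relevant, half-log spacing, 10 microM ceiling without known Cmax. Read-out: cell viability.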

[1] = second compound 0.0316 µM, first compound 0.0316 µM
[2] = second compound 0.0316 µM, first compound 0.1 µM
[3] = second compound 0.0316 µM, first compound 0.316 µM
[4] = second compound 0.0316 µM, first compound 1 µM
[5] = second compound 0.0316 µM, first compound 3.16 µM
[6] = second compound 0.0316 µM, first compound 10 µM
[7] = second compound 0.1 µM, first compound 0.0316 µM
[8] = second compound 0.1 µM, first compound 0.1 µM
[9] = second compound 0.1 µM, first compound 0.316 µM
[10] = second compound 0.1 µM, first compound 1 µM
[11] = second compound 0.1 µM, first compound 3.16 µM
[12] = second compound 0.1 µM, first compound 10 µM
[13] = second compound 0.316 µM, first compound 0.0316 µM
[14] = second compound 0.316 µM, first compound 0.1 µM
[15] = second compound 0.316 µM, first compound 0.316 µM
[16] = second compound 0.316 µM, first compound 1 µM
[17] = second compound 0.316 µM, first compound 3.16 µM
[18] = second compound 0.316 µM, first compound 10 µM
[19] = second compound 1 µM, first compound 0.0316 µM
[20] = second compound 1 µM, first compound 0.1 µM
[21] = second compound 1 µM, first compound 0.316 µM
[22] = second compound 1 µM, first compound 1 µM
[23] = second compound 1 µM, first compound 3.16 µM
[24] = second compound 1 µM, first compound 10 µM
[25] = second compound 3.16 µM, first compound 0.0316 µM
[26] = second compound 3.16 µM, first compound 0.1 µM
[27] = second compound 3.16 µM, first compound 0.316 µM
[28] = second compound 3.16 µM, first compound 1 µM
[29] = second compound 3.16 µM, first compound 3.16 µM
[30] = second compound 3.16 µM, first compound 10 µM
[31] = second compound 10 µM, first compound 0.0316 µM
[32] = second compound 10 µM, first compound 0.1 µM
[33] = second compound 10 µM, first compound 0.316 µM
[34] = second compound 10 µM, first compound 1 µM
[35] = second compound 10 µM, first compound 3.16 µM
[36] = second compound 10 µM, first compound 10 µM
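Note: spheroids exposed to agents for seven days before the viability read.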

With `CC1(C)CCC(CN2CCN(c3ccc(C(=O)NS(=O)(=O)c4ccc(NCC5CCOCC5)c([N+](=O)[O-])c4)c(Oc4cnc5[nH]ccc5c4)c3)CC2)=C(c2ccc(Cl)cc2)C1` + CC(Nc1ncnc2nc[nH]c12)c1cc2cccc(Cl)c2c(=O)n1-c1ccccc1 the IC50 (second compound 0.0316 µM) was > 10 µM, the IC50 (second compound 0.1 µM) was > 10 µM and the IC50 (second compound 0.316 µM) was > 10 µM. For the same molecule, the IC50 (second compound 1 µM) was > 10 µM, the IC50 (second compound 3.16 µM) was > 10 µM and the IC50 (second compound 10 µM) was > 10 µM. For the same molecule, the viability, T/C [1] was 92.4%, the viability, T/C [2] was 78% and the viability, T/C [3] was 85.5%. It also gave a viability, T/C [4] of 91.7%, a viability, T/C [5] of 71.3% and a viability, T/C [6] of 110%. For the same molecule, the viability, T/C [7] was 81.3%, the viability, T/C [8] was 89.1% and the viability, T/C [9] was 97.8%. It also gave a viability, T/C [10] of 99.5%, a viability, T/C [11] of 67.2% and a viability, T/C [12] of 93%. It also gave a viability, T/C [13] of 86.3%, a viability, T/C [14] of 105% and a viability, T/C [15] of 103%. The viability, T/C [16] was 97.7%, the viability, T/C [17] was 64.1% and the viability, T/C [18] was 93%. The viability, T/C [19] was 106%, the viability, T/C [20] was 92.8% and the viability, T/C [21] was 93.4%. The viability, T/C [22] was 80.9%, the viability, T/C [23] was 66.4% and the viability, T/C [24] was 87.2%. It also gave a viability, T/C [25] of 89.1%, a viability, T/C [26] of 106% and a viability, T/C [27] of 95.2%. The viability, T/C [28] was 85.6%, the viability, T/C [29] was 60.8% and the viability, T/C [30] was 93.5%. It also gave a viability, T/C [31] of 90.9%, a viability, T/C [32] of 87% and a viability, T/C [33] of 90.2%. It also gave a viability, T/C [34] of 82.2%, a viability, T/C [35] of 53% and a viability, T/C [36] of 76.2%.
With `C[C@@H](NC(=O)c1ncnc(N)c1Cl)c1ncc(C(=O)Nc2cc(C(F)(F)F)c(Cl)cn2)s1` + CC(Nc1ncnc2nc[nH]c12)c1cc2cccc(Cl)c2c(=O)n1-c1ccccc1 the IC50 (second compound 0.0316 µM) was > 10 µM, the IC50 (second compound 0.1 µM) was > 10 µM and the IC50 (second compound 0.316 µM) was > 10 µM. The IC50 (second compound 1 µM) was > 10 µM, the IC50 (second compound 3.16 µM) was > 10 µM and the IC50 (second compound 10 µM) was > 10 µM. The viability, T/C [1] was 88.8%, the viability, T/C [2] was 84.2% and the viability, T/C [3] was 102%. For the same molecule, the viability, T/C [4] was 85%, the viability, T/C [5] was 99.7% and the viability, T/C [6] was 75.5%. It also gave a viability, T/C [7] of 90.3%, a viability, T/C [8] of 104% and a viability, T/C [9] of 108%. For the same molecule, the viability, T/C [10] was 89%, the viability, T/C [11] was 89.6% and the viability, T/C [12] was 59.4%. The viability, T/C [13] was 103%, the viability, T/C [14] was 104% and the viability, T/C [15] was 92.5%. It also gave a viability, T/C [16] of 98.8%, a viability, T/C [17] of 87.9% and a viability, T/C [18] of 62.1%. For the same molecule, the viability, T/C [19] was 100%, the viability, T/C [20] was 94.5% and the viability, T/C [21] was 97.4%. For the same molecule, the viability, T/C [22] was 96.5%, the viability, T/C [23] was 102% and the viability, T/C [24] was 71%. The viability, T/C [25] was 90.6%, the viability, T/C [26] was 89.3% and the viability, T/C [27] was 105%. For the same molecule, the viability, T/C [28] was 99%, the viability, T/C [29] was 92.8% and the viability, T/C [30] was 68.9%. It also gave a viability, T/C [31] of 82.7%, a viability, T/C [32] of 86% and a viability, T/C [33] of 84.8%. It also gave a viability, T/C [34] of 93.1%, a viability, T/C [35] of 87.7% and a viability, T/C [36] of 70.3%.
With `Cn1ncnc1[C@H]1c2n[nH]c(=O)c3cc(F)cc(c23)N[C@@H]1c1ccc(F)cc1` + CC(Nc1ncnc2nc[nH]c12)c1cc2cccc(Cl)c2c(=O)n1-c1ccccc1 the IC50 (second compound 0.0316 µM) was > 0.1 µM, the IC50 (second compound 0.1 µM) was > 0.1 µM and the IC50 (second compound 0.316 µM) was > 0.1 µM. For the same molecule, the IC50 (second compound 1 µM) was > 0.1 µM, the IC50 (second compound 3.16 µM) was > 0.1 µM and the IC50 (second compound 10 µM) was > 0.1 µM. For the same molecule, the viability, T/C (second compound 0.0316 µM, first compound 0.000316 µM) was 91.2%, the viability, T/C (second compound 0.0316 µM, first compound 0.001 µM) was 88.5% and the viability, T/C (second compound 0.0316 µM, first compound 0.00316 µM) was 85.4%. For the same molecule, the viability, T/C (second compound 0.0316 µM, first compound 0.01 µM) was 108%, the viability, T/C [1] was 105% and the viability, T/C [2] was 106%. The viability, T/C (second compound 0.1 µM, first compound 0.000316 µM) was 102%, the viability, T/C (second compound 0.1 µM, first compound 0.001 µM) was 97.2% and the viability, T/C (second compound 0.1 µM, first compound 0.00316 µM) was 98.2%. For the same molecule, the viability, T/C (second compound 0.1 µM, first compound 0.01 µM) was 86.4%, the viability, T/C [7] was 101% and the viability, T/C [8] was 83.1%. It also gave a viability, T/C (second compound 0.316 µM, first compound 0.000316 µM) of 100%, a viability, T/C (second compound 0.316 µM, first compound 0.001 µM) of 117% and a viability, T/C (second compound 0.316 µM, first compound 0.00316 µM) of 98.8%. The viability, T/C (second compound 0.316 µM, first compound 0.01 µM) was 104%, the viability, T/C [13] was 92.7% and the viability, T/C [14] was 88.6%. The viability, T/C (second compound 1 µM, first compound 0.000316 µM) was 110%, the viability, T/C (second compound 1 µM, first compound 0.001 µM) was 96.5% and the viability, T/C (second compound 1 µM, first compound 0.00316 µM) was 110%. The viability, T/C (second compound 1 µM, first compound 0.01 µM) was 96.2%, the viability, T/C [19] was 100% and the viability, T/C [20] was 79.8%. The viability, T/C (second compound 3.16 µM, first compound 0.000316 µM) was 108%, the viability, T/C (second compound 3.16 µM, first compound 0.001 µM) was 107% and the viability, T/C (second compound 3.16 µM, first compound 0.00316 µM) was 92.1%. The viability, T/C (second compound 3.16 µM, first compound 0.01 µM) was 96.7%, the viability, T/C [25] was 99.6% and the viability, T/C [26] was 73.4%. It also gave a viability, T/C (second compound 10 µM, first compound 0.000316 µM) of 94.7%, a viability, T/C (second compound 10 µM, first compound 0.001 µM) of 87.1% and a viability, T/C (second compound 10 µM, first compound 0.00316 µM) of 85.8%. It also gave a viability, T/C (second compound 10 µM, first compound 0.01 µM) of 93.3%, a viability, T/C [31] of 89.3% and a viability, T/C [32] of 65.2%.
